Data published in ChEMBL document CHEMBL1139451, “The discovery of ezetimibe: a view from outside the receptor” (2004).
One block for each compound: values may come before it. Active and inactive are the calls of the source. The calls are words filed in the database; no cut-off is given here.

Experiments:
Cricetinae gen. sp. [1] = assay: Compound was tested for the change in liver cholesterol (CE) levels in hamsters; assay type: functional, Cricetulus griseus
Monkey = assay: Compound was tested for the change in serum cholesterol (SC) levels in cholesterol fed monkey; assay type: functional; conditions: Cercopithecidae, in Primates
Homo sapiens [2] = species: Homo sapiens; assay: Compound was tested for the reduction in low density lipoprotein cholesterol; assay type: functional
Canis familiaris = species: Canis familiaris; assay: Compound was tested for the change in serum cholesterol (SC) levels in cholesterol fed dog; assay type: functional; conditions: Canis lupus familiaris
Homo sapiens [3] = species: Homo sapiens; assay: Compound was tested for the reduction in high density lipoprotein cholesterol; assay type: functional
Cricetinae gen. sp. [4] = assay: Compound was tested for the change in liver cholesterol (CE) levels in hamster; assay type: functional, Cricetulus griseus
Homo sapiens [5] = species: Homo sapiens; assay: Compound was tested for the reduction in triglycerides; assay type: functional
Homo sapiens [6] = species: Homo sapiens; assay: Compound was tested for the reduction in total cholesterol; assay type: functional
Rattus norvegicus = species: Rattus norvegicus; assay: Compound was tested for the change in serum cholesterol (SC) level in cholesterol fed rat; assay type: functional
[7] = biological target: T1, Sterol O-acyltransferase 1 (Cricetulus griseus) (UniProt Q60457); assay: Compound was tested for the change in serum cholesterol (SC) levels by the inhibition of ACAT in hamster at 50 mg/kg p.o.; assay type: functional, organism-based; design: dose 50 mg/kg
T1 sequence (whole entry): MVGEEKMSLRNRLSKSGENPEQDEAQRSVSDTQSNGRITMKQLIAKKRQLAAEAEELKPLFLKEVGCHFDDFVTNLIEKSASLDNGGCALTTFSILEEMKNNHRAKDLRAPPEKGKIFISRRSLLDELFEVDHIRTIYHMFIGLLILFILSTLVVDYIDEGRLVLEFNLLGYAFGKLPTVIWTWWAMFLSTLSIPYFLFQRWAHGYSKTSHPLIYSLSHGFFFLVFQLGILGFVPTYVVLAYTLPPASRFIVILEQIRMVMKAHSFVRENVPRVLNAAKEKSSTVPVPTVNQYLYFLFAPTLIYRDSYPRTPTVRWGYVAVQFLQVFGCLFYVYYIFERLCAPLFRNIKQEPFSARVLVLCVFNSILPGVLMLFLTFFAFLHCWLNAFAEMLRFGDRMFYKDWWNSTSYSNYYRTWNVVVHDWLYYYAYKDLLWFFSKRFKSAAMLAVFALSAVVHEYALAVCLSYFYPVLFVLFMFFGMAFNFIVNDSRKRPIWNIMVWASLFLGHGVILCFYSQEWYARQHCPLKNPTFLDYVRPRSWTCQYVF

[8] = biological target: T1, Sterol O-acyltransferase 1 (Cricetulus griseus); assay: Compound was tested for the change in liver cholesteryl ester (CE) levels by the inhibition of ACAT in hamster at 50 mg/kg p.o.; assay type: functional, organism-based; design: dose 50 mg/kg
[9] = biological target: T1, Sterol O-acyltransferase 1 (Cricetulus griseus); assay: Compound was tested for the change in serum cholesterol (SC) levels by the inhibition of ACAT in hamster at 50 mg/kg p.o.; NE=No effect; assay type: functional, organism-based; design: dose 50 mg/kg
[10] = biological target: T1, Sterol O-acyltransferase 1 (Cricetulus griseus); assay: Compound was tested for the change in liver cholesteryl ester (CE) levels by the inhibition of ACAT in hamster at 50 mg/kg p.o.; NE=No effect; assay type: functional, organism-based; design: dose 50 mg/kg

Structure (SMILES): COc1ccc([C@@H]2N(c3ccccc3)C(=O)C23CCC(c2ccc(Cl)cc2)CC3)cc1 (stereo in doubt; 17) [listing 1 of 2 here]
ED50 (Cricetinae gen. sp. [1]): 0.66 mg/kg

Structure (SMILES): O=C1[C@H](CC[C@H](O)c2ccc(F)cc2)[C@@H](c2ccc(O)cc2)N1c1ccc(F)cc1 [EZETIMIBE]
ED50 (Monkey): 0.0005 mg/kg
Mean (Homo sapiens [2]): -16.9%
ED50 (Canis familiaris): 0.007 mg/kg
Mean (Homo sapiens [3]): 1.3%
ED50 (Cricetinae gen. sp. [4]): 0.04 mg/kg
Mean (Homo sapiens [5]): -5.7%
Mean (Homo sapiens [6]): -12.5%
ED50 (Rattus norvegicus): 0.03 mg/kg

Structure (SMILES): O=Cc1ccc([C@@H]2[C@@H](CC[C@H](O)c3ccccc3)C(=O)N2c2ccc(C=O)cc2)cc1
ED50 (Cricetinae gen. sp. [1]): 0.9 mg/kg

Structure (SMILES): O=Cc1ccc([C@@H]2[C@@H](CCCc3ccc(O)cc3)C(=O)N2c2ccc(C=O)cc2)cc1
Change in cholesterol [8]: -78%

Structure (SMILES): O=Cc1ccc([C@@H]2[C@@H](CC[C@@H](O)c3ccccc3)C(=O)N2c2ccc(C=O)cc2)cc1
ED50 (Cricetinae gen. sp. [4]): 5 mg/kg

Structure (SMILES): CC(=O)c1ccc([C@@H]2[C@@H](CCC(=O)c3ccccc3)C(=O)N2c2ccc(C(C)=O)cc2)cc1
ED50 (Cricetinae gen. sp. [4]): 1.9 mg/kg

Structure (SMILES): O=C1[C@H](CCCc2ccccc2)[C@@H](c2ccc(O)cc2)N1c1ccc(O)cc1
Change in cholesterol [8]: -78%

Structure (SMILES): COc1ccc([C@@H]2[C@@H](/C=C/Cc3ccccc3)C(=O)N2c2ccc(OC)cc2)cc1
Change in cholesterol [9]: inactive
Change in cholesterol [10]: inactive

Now from value to compound:

Change in cholesterol [7]: No effect
Change in cholesterol [8]: No effect
Structure (SMILES): COc1ccc([C@@H]2N(c3ccccc3)C(=O)C23CCC(c2ccc(Cl)cc2)CC3)cc1 (stereo in doubt; 18)

Change in cholesterol [7]: -46%
Change in cholesterol [8]: -97%
Structure (SMILES): COc1ccc([C@@H]2N(c3ccccc3)C(=O)C23CCC(c2ccc(Cl)cc2)CC3)cc1 (stereo in doubt; 17) [listing 2 of 2 here]

Change in cholesterol [8]: -68%
Structure (SMILES): O=Cc1ccc([C@@H]2[C@@H](CCCc3ccccc3)C(=O)N2c2ccc(O)cc2)cc1

Change in cholesterol [7]: -20%
Change in cholesterol [8]: -73%
Structure (SMILES): COc1ccc([C@@H]2[C@@H](/C=C\Cc3ccccc3)C(=O)N2c2ccc(OC)cc2)cc1
